Source: the NIST ThermoML archive (doi:10.1021/je3003783)
Numbers after ± are expanded uncertainties.

Conditions: 101.33 kPa, Liquid, Vibrating tube method

SMILES | mass density (298.15 K) [kg/m3] | mass density (323.15 K) [kg/m3] | mass density (348.15 K) [kg/m3] | mass density (363.15 K) [kg/m3]
CCCCn1cc[n+](C)c1.[Cl-] [1-butyl-3-methylimidazolium chloride] | 1081.59 ± 0.38 | 1067.28 ± 0.37 | 1053.35 ± 0.35 | 1045.06 ± 0.34
CCCCCCn1cc[n+](C)c1.[Cl-] [1-hexyl-3-methylimidazolium chloride] | 1040.92 ± 0.34 | 1026.73 ± 0.32 | 1012.81 ± 0.31 | 1004.49 ± 0.3
CCCCCCCC[n+]1ccn(C)c1.[Cl-] [1-methyl-3-octylimidazolium chloride] | 1012.35 ± 0.31 | 998.05 ± 0.3 | 983.99 ± 0.3 | 975.67 ± 0.3
